Measurements from US9725449B2, “Tricyclic compounds as anticancer agents” (BRISTOL-MYERS SQUIBB COMPANY, priority 2015, dated 2017).

These molecules were tested against BRD4 (Homo sapiens, UniProt O60885) (assay: Time resolved fluorescence resonance energy transfer (TR-FRET) binding assay, bromodomain BRD4). Conditions: one of the FRET assays described; read-out: FRET BRD4 IC50.
In the case of `[2H]C([2H])([2H])c1nnn(C)c1-c1cnc2c3c(OC(C)C)ncc(S(C)(=O)=O)c3n(C(c3ncccc3F)C3CCOCC3)c2c1` (stereo not drawn) [Example 70, 8-[(3-Fluoropyridin-2-yl)(oxan-4-yl)methyl]-10-methanesulfonyl-5-[4-(^2H3)methyl-1-methyl-1H-1,2,3-triazol-5-yl]-13-(propan-2-yloxy)-3,8,12-triazatricyclo[7.4.0.0^2,^7]trideca-1(13),2(7),3,5,9,11-hexaene], the IC50 is reported as under 0.001 µM.
Molecule `Cc1noc(C)c1-c1cnc2c3cnc(Cl)cc3n(C(c3ncccc3F)C3CCOCC3)c2c1` (stereo not drawn) [Example 324, 11-Chloro-5-(dimethyl-1,2-oxazol-4-yl)-8-[(3-fluoropyridin-2-yl)(oxan-4-yl)methyl]-3,8,12-triazatricyclo[7.4.0.0^2,^7]trideca-1(9),2(7),3,5,10,12-hexaene] has an IC50 of under 1.5 µM.
`[2H]C([2H])([2H])c1nnn(C)c1-c1cnc2c3c(OCC4CC4)ncc(S(C)(=O)=O)c3n([C@H](c3ccc(F)cc3)C3CCOCC3)c2c1` [Example 78, 13-(Cyclopropylmethoxy)-8-[(S)-(4-fluorophenyl)(oxan-4-yl)methyl]-10-methanesulfonyl-5-[4-(^2H3)methyl-1-methyl-1H-1,2,3-triazol-5-yl]-3,8,12-triazatricyclo[7.4.0.0^2,^7]trideca-1(13),2(7),3,5,9,11-hexaene] gave an IC50 of under 0.001 µM.
For `[2H]C([2H])([2H])c1nnn(C)c1-c1cnc2c3c(OCC4CC4)nccc3n([C@H](c3ccccc3)C3CCOCC3)c2c1` [Example 130, 13-(Cyclopropylmethoxy)-5-[4-(^2H3)methyl-1-methyl-1H-1,2,3-triazol-5-yl]-8-[(S)-oxan-4-yl(phenyl)methyl]-3,8,12-triazatricyclo[7.4.0.0^2,^7]trideca-1(13),2(7),3,5,9,11-hexaene], the IC50 was under 0.001 µM.
`[2H]C([2H])([2H])c1nnn(C)c1-c1cnc2c3c(OC)ncc(S(C)(=O)=O)c3n(C(c3cccc(F)c3)C3CCOCC3)c2c1` (single isomer, unassigned) [Example 87, 8-[(3-Fluorophenyl)(oxan-4-yl)methyl]-10-methanesulfonyl-13-methoxy-5-[4-(^2H3)methyl-1-methyl-1H-1,2,3-triazol-5-yl]-3,8,12-triazatricyclo[7.4.0.0^2,^7]trideca-1(13),2(7),3,5,9,11-hexaene] showed an IC50 of under 1.5 µM.
In the case of `[2H]C([2H])([2H])c1nnn(C)c1-c1cnc2c3ccc(C(C)(O)C4CC4)nc3n([C@H](c3ccccc3F)C3CCOCC3)c2c1` (stereo partly drawn) [Example 242, 1-Cyclopropyl-1-{8-[(S)-(2-fluorophenyl)(oxan-4-yl)methyl]-5-[4-(^2H3)methyl-1-methyl-1H-1,2,3-triazol-5-yl]-3,8,10-triazatricyclo[7.4.0.0^2,^7]trideca-1(13),2(7),3,5,9,11-hexaen-11-yl}ethan-1-ol], the IC50 is reported as under 0.01 µM.
With `Cc1nnn(C)c1-c1cnc2c3cc(Cl)ncc3n([C@H](c3ccccc3F)C3CCOCC3)c2c1` [Example 4, 12-Chloro-5-(dimethyl-1H-1,2,3-triazol-5-yl)-8-[(S)-(2-fluorophenyl)(oxan-4-yl)methyl]-3,8,11-triazatricyclo[7.4.0.0^2,^7]trideca-1(13),2(7),3,5,9,11-hexaene] the IC50 was under 0.01 µM.
With `[2H]C([2H])([2H])c1nnn(C)c1-c1cnc2c3c(OC)nc(C(C)=O)cc3n([C@H](c3ncccc3F)C3CCOCC3)c2c1` [Example 308, 1-{8-[(S)-(3-Fluoropyridin-2-yl)(oxan-4-yl)methyl]-13-methoxy-5-[4-(^2H3)methyl-1-methyl-1H-1,2,3-triazol-5-yl]-3,8,12-triazatricyclo[7.4.0.0^2,^7]trideca-1(9),2(7),3,5,10,12-hexaen-11-yl}ethan-1-one] the IC50 was under 0.01 µM.
`COc1ncc(S(C)(=O)=O)c2c1c1ncc(-c3c(C)noc3C)cc1n2C(c1ccccc1)C1CCC(F)(F)CC1` (single isomer, unassigned) [Example 88, 8-[(4,4-Difluorocyclohexyl)(phenyl)methyl]-5-(dimethyl-1,2-oxazol-4-yl)-10-methanesulfonyl-13-methoxy-3,8,12-triazatricyclo[7.4.0.0^2,^7]trideca-1(13),2(7),3,5,9,11-hexaene] showed an IC50 of under 0.01 µM.
